In US5578585A, “Pleuromutilin derivative complexes” (Biochemie Gesellschaft m.b.H., priority 1991, dated 1996):

Experiments:
[1] = Feed stability: storage in ready piglet feed, content by HPLC; assay type: physicochemical; conditions: feed mixture, 200 ppm, 30°
Protocol: (§1) As model feed a ready feed for piglets of the following composition is used:
Various forms of the preparation are mixed with the ready feed in a concentration of 200 ppm of compound of formula I and stored for several weeks at 30°. Both the starting value of the fresh mixtures and the content values after storage for 2, 4 and 8 weeks are analysed by high pressure liquid chromatography (HPLC).

[2] = Feed stability: optimum ratio of compound of formula I to β-cyclodextrin; assay type: physicochemical; conditions: feed mixtures, ratio to β-cyclodextrin varied
Protocol: as §1
Various forms of the preparation are mixed with the ready feed in a concentration of 200 ppm of compound of formula I and stored for several weeks at 30°. […]
For determination of the optimum ratio of compound of formula I to cyclodextrin, investigations are carried out using various concentrations of cyclodextrin. Results as regards stability in feed mixtures are summarized in Table 2 [in the first column "ratio" means the ratio of compound of formula I (hydrochloride) to β-cyclodextrin]: […]

[3] = Oral absorption in rats, plasma concentration by microbiological analysis; assay type: in vivo; conditions: rat, 25 mg/kg body weight, pure compound in drinking water
Protocol: (§2) Absorption following administration to rats and pigs of 25 mg/kg body weight of a preparation according to Example 3 is tested and compared with pure compound of formula I (hydrochloride) in the drinking water. Blood samples are taken after a period of 24 hours and the concentration of active substance in plasma determined by microbiological analysis. The results in Table 3 show the absorption of the compound of formula I when administered in the form of a complex of the invention: […]

[4] = Oral absorption in pigs, plasma concentration by microbiological analysis; assay type: in vivo; conditions: pig, 25 mg/kg body weight, pure compound in drinking water
Protocol: as §2

[5] = Phase-solubility diagram (inclusion compound type, complex binding constant) with β-cyclodextrin; assay type: physicochemical; conditions: compound of formula I in the form of the base; with cyclodextrin (printed without Greek letter)
Excerpt: (§3) Based on the phase-solubility diagram (see "Methods of investigating and preparing inclusion compounds and their industrial uses" in D. Duchene, "Cyclodextrins and their Industrial Uses", Editions de Sante [1987]), the following types of inclusion compounds are obtained with the compound of formula I in the form of the base and […]

[6] = Phase-solubility diagram (inclusion compound type, complex binding constant) with γ-cyclodextrin; assay type: physicochemical; conditions: compound of formula I in the form of the base
Excerpt: as §3

[7] = Stability in conventional complete feed mixtures (general statement); assay type: physicochemical
[8] = tested on: gram-positive and gram-negative bacteria; conditions: many gram-positive and gram-negative bacteria; free base, acid addition or quaternary salt form; cited from earlier work
[9] = read-out: AUC (area under curve)
[10] = read-out: Cmax (maximum plasma concentration)

Row | Structure (SMILES) | Content after 2 weeks ([1]; after 2 weeks, 20160 min) [%] | Content after 4 weeks ([1]; after 4 weeks, 40320 min) [%] | Content after 8 weeks ([1]; after 8 weeks, 80640 min) [%] | Content, initial value ([1]; initial value) [%] | Content after 1 month ([2]; after 1 month, 43800 min) [%] | Content after 2 months ([2]; after 2 months, 87600 min) [%] | Content after 3 months ([2]; after 3 months, 131400 min) [%] | Content, initial value ([2]; initial value) [%] | AUC [3, 9] [ng·h/mL] | Cmax [3, 10] [ng/mL] | AUC [4, 9] [ng·h/mL] | Cmax [4, 10] [ng/mL] | type of inclusion compound (phase-solubility diagram) [5] | type of inclusion compound (phase-solubility diagram) [6] | breakdown by constituents of conventional complete feed mixtures [7] | antibacterial effectiveness [8]
1 | C=C[C@]1(C)C[C@@H](OC(=O)CSC(C)(C)CNC(=O)[C@H](N)C(C)C)[C@]2(C)[C@H](C)CC[C@]3(CCC(=O)[C@H]32)[C@@H](C)[C@@H]1O [14-O-[1-((D)-2-amino-3-methylbutyrylamino)-2-methylpropan-2-ylthioacetyl]mutilin] | 15 | 8 | 6 | 100 | 9 | 9 | 7 | 100 | 139000 | 8600 | 21400 | 1200 |  |  |  | 
2 | C=C[C@]1(C)C[C@@H](OC(=O)CSC(C)(C)CNC(=O)[C@H](N)C(C)C)[C@]2(C)[C@H](C)CC[C@]3(CCC(=O)[C@H]32)[C@@H](C)[C@@H]1O [compound of formula I, 14-O-[1-((D)-2-amino-3-methylbutyrylamino)-2-methylpropan-2-ylthioacetyl]mutilin] |  |  |  |  |  |  |  |  |  |  |  |  | type AL | type BS | broken down very rapidly | highly effective
